Like-named read-outs stand apart in the source and are kept apart here.
Legend:
[1] = target: T1, CDK12 (Homo sapiens, UniProt Q9NYV4); assay: Cellular CDK12 inhibitory activity assay (Ser2 phosphorylation of RNA polymerase II subunit B1 CTD in MDA-MB-231 cells); type: cell-based; parameters: using MDA-MB-231 breast cancer cells; endogenous in cells; host or cells: MDA-MB-231
Description: MDA-MB-231 cells were dispensed into a 96-well plate at 100 µL of cell suspension per well using L-15 (Invitrogen) medium containing 10 % FBS, followed by overnight incubation in a cell incubator at 37 °C and 0 % CO2. The next day, each Example compound dissolved in DMSO across 9 concentration ranges and a DMSO control group were treated on the MDA-MB-231 cells at 37 °C and 0 % CO2 for 6 hours. After the compound treatment, the medium in the 96-well plate was removed, and 60 µL of a fixing solution (4.0 % paraformaldehyde in PBS) was added to each well, followed by standing for 20 minutes. After removing the fixing solution and washing with PBS, 60 µL of PBS containing 0.1 % Triton X-100 was dispensed into each well, followed by shaking at room temperature for 15 minutes. After washing with PBS, 100 µL of blocking buffer was added, followed by shaking at room temperature for 1 hour. After removing the blocking buffer, primary antibodies, which are RNA polymerase II subunit B1 phospho-Ser2 (1:500, Cell signaling technology) and RNA polymerase II subunit B1 carboxy-terminal domain (1:200, Cell signaling technology), were added at 60 µL per well and reacted overnight at 4 °C. After adding 150 µL of PBS containing 0.1 % Triton X-100 and washing at least twice by shaking at room temperature for 5 minutes, 60 µL of a secondary antibody was added, followed by shaking at room temperature for 1 hour while blocking light. After adding 150 µL of PBS containing 0.1 % Triton X-100 and washing at least twice by shaking at room temperature for 5 minutes, 150 µL of PBS was added again, followed by washing at least twice by shaking at room temperature for 5 minutes. The plate was scanned using a Li-COR Odyssey machine with the wells filled with PBS. IC50 values were calculated by fitting a dose-response curve using a 4-parameter model of Prism (Graphpad) software.

[2] = tested on: MDA-MB-231 breast cancer cells; assay: Proliferation inhibitory activity assay against MDA-MB-231 breast cancer cells; type: cell-based; conditions: Homo sapiens, 72 hours, CellTiter Glo, relative IC50
Description: Experiments were performed using the MDA-MB-231 breast cancer cell line to measure the cell proliferation inhibitory ability of each Example compound. MDA-MB-231 cells were dispensed into a 96-well plate at 100 µL of cell suspension per well using L-15 (Invitrogen) medium containing 10 % FBS, followed by incubation in a cell incubator at 37 °C and 0 % CO2. The next day, each Example compound dissolved and diluted in DMSO across 9 concentration ranges and a DMSO control group were treated on the cells for 72 hours. After the compound treatment was completed, 100 µL of CellTiter Glo (Promega) reagent was added to each well of the 96-well plate, followed by shaking for 10 minutes and standing at room temperature for 10 minutes. Luminescence signals were measured after inserting the 96-well plate into an Envision plate reader (PerkinElmer). Relative IC50 values were calculated by fitting a dose-response curve using XLfit (IDBS Ltd) software.
The breast cancer cell proliferation inhibitory activities of the Example compounds measured by the above method were evaluated according to the following criteria, and the results are presented in Table 13.

[3] = target: T1, CDK12; assay: CDK12 kinase inhibitory activity assay (33P-ATP filter binding); type: biochemical
Description: (§1) Before initiating the CDK12 and CDK13 kinase reactions, each Example compound was dissolved and diluted in DMSO as a solvent across 9 concentration ranges at room temperature. The diluted solutions were then incubated with a mixture of kinase and substrate (and cofactors, if required) for 20 minutes. Next, radioisotope-labeled ATP (^33P-gamma-ATP) was added to proceed with the kinase reaction at room temperature for 120 minutes. After the reaction was completed, the reaction mixture was transferred to a filter paper that binds the radioisotope-labeled catalytic product (^33P-substrate). Unreacted ^33P-ATP was removed by washing with 0.75 % phosphoric acid, and then the radioactive phosphorylated substrate remaining on the filter paper was measured. Kinase activity data were expressed as a percentage of the kinase activity remaining in the test sample compared to a DMSO control group. The half-maximal inhibitory concentration (IC50) for each kinase was calculated using Prism (Graphpad) software.

[4] = target: CDK13 (Homo sapiens, UniProt Q14004); assay: CDK13 kinase inhibitory activity assay (33P-ATP filter binding); type: biochemical
CDK13, sequence (Q14004 whole entry, species assumed): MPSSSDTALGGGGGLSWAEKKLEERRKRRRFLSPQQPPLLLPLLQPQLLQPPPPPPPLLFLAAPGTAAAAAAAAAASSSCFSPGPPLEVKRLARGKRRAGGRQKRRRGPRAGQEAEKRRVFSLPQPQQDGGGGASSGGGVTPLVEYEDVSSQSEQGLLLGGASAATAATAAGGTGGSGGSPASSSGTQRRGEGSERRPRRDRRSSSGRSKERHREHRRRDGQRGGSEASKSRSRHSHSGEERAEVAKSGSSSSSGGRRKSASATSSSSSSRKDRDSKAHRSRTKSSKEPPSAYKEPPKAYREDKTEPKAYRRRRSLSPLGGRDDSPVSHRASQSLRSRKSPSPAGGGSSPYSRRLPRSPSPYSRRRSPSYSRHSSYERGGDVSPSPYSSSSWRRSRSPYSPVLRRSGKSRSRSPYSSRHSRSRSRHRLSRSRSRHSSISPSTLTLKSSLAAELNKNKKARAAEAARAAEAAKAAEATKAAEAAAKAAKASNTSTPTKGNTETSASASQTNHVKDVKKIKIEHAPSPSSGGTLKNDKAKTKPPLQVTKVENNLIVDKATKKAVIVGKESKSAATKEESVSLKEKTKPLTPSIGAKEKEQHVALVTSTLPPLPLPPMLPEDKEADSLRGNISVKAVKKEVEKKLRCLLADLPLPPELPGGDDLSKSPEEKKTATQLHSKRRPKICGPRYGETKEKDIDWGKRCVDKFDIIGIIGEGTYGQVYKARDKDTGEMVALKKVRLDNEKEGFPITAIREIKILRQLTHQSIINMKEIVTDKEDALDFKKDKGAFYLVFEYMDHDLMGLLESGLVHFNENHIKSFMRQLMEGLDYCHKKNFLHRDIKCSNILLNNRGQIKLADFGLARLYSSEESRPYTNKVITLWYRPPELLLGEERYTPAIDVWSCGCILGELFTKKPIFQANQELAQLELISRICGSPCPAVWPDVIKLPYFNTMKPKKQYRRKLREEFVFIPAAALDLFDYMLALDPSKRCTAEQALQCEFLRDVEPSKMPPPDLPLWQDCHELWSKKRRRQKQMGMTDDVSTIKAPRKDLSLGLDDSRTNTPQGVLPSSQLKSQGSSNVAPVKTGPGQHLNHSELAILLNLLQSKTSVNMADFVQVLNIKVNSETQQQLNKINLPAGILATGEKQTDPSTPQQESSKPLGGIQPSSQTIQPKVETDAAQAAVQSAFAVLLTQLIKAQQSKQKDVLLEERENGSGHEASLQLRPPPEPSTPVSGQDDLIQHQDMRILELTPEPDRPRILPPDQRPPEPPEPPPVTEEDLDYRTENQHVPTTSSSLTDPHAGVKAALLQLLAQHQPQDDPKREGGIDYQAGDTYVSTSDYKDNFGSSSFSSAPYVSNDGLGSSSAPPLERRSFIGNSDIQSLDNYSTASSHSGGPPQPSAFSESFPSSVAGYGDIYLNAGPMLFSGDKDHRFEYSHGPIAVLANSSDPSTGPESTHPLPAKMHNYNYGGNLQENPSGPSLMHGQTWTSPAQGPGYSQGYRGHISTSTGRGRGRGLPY
CDK13, sequence (O75909 whole entry partner, species assumed): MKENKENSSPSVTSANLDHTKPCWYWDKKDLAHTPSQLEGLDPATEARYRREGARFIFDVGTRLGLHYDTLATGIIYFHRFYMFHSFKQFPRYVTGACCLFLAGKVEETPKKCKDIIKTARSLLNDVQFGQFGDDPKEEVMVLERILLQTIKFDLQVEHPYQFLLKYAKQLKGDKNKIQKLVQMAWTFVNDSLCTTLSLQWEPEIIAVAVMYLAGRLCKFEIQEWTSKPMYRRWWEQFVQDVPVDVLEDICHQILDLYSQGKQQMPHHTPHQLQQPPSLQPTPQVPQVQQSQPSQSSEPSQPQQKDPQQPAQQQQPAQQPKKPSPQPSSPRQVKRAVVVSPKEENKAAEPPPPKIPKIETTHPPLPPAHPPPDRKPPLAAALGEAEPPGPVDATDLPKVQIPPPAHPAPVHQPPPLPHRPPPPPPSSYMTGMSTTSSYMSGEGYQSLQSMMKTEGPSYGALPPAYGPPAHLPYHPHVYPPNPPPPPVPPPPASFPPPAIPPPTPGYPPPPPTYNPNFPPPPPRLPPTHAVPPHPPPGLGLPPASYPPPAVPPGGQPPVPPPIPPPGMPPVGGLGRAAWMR
Description: as §1

[5] = MDA-MB-231 cells, 6 hours treatment, read-out: pRpbl CTD S2 IC50
[6] = kinase reaction 120 minutes, 33P-gamma-ATP, read-out: CDK12 IC50
[7] = kinase reaction 120 minutes, 33P-gamma-ATP, read-out: CDK13 IC50

T1 sequence (Q9NYV4 whole entry, species assumed): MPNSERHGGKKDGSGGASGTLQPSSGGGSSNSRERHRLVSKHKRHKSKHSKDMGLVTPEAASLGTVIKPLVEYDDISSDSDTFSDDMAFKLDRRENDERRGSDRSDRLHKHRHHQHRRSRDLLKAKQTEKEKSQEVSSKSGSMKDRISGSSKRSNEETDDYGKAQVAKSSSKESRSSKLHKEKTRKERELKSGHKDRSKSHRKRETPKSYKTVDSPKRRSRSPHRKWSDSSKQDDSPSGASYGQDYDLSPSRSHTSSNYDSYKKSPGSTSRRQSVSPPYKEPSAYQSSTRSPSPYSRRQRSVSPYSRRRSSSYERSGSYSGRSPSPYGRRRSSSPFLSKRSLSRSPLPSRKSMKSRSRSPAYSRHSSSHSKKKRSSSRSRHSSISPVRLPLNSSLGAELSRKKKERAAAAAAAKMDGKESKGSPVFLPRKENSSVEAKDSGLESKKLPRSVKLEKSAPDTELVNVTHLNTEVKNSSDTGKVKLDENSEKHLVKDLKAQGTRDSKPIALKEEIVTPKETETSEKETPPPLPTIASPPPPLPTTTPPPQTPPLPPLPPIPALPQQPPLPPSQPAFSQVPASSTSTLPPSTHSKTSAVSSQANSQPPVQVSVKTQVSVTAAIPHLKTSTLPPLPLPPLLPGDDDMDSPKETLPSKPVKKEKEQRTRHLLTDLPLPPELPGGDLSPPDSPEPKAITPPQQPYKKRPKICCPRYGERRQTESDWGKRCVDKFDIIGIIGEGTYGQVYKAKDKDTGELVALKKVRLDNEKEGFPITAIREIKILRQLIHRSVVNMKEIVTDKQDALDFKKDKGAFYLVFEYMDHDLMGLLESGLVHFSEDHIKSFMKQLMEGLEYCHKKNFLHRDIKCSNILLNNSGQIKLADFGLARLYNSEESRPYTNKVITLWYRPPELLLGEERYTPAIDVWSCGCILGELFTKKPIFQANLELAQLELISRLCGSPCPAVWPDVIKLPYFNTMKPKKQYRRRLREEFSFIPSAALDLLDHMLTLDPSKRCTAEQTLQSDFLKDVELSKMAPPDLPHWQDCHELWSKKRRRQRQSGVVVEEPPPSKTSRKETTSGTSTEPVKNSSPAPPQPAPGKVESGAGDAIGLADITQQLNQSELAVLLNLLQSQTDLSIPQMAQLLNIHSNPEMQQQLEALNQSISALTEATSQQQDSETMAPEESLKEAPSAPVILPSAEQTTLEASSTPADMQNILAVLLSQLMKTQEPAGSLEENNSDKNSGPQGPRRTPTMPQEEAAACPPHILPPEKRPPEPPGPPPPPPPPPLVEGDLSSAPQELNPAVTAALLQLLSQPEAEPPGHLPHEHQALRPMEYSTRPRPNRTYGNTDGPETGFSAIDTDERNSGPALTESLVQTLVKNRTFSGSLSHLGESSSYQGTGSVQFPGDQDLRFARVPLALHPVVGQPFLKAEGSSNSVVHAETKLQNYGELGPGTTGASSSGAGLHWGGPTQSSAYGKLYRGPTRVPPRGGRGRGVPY
T1 sequence (O75909 whole entry partner, species assumed): as the sequence (O75909 whole entry partner, species assumed) above

| IC50 [1, 5] [nM] | IC50 [2] [nM] | IC50 [3, 6] [nM] | IC50 [4, 7] [nM] | Structure (SMILES) | IC50 [4] [nM] | IC50 [3] [nM] | IC50 [1] [nM] |
| --- | --- | --- | --- | --- | --- | --- | --- |
| < 300 | ≤ 50 | < 100 | < 100 | N[C@@H]1CCN(c2cc(NCc3nc4ccc(F)c(F)c4[nH]3)c3ncc(C(F)(F)F)n3n2)C1 [Example 37] | – | – | – |
| < 300 | ≤ 50 | < 100 | < 100 | Fc1ccc2nc(CNc3cc(N4CCOCC4)nn4c(C(F)(F)F)cnc34)[nH]c2c1F [Example 6, N-((6,7-difluoro-1H-benzo[d]imidazol-2-yl)methyl)-6-morpholino-3-(trifluoromethyl)imidazo[1,2-b]pyridazin-8-amine] | – | – | – |
| 300 to 3000 | 50 to 500 | < 100 | < 100 | O=C(CO)NC1CN(c2cc(NCc3nc4cc(Cl)c(Cl)cc4[nH]3)c3ncc(C(F)(F)F)n3n2)C1 [Example 103, N-(1-(8-(((5,6-dichloro-1H-benzo[d]imidazol-2-yl)methyl)amino)-3-(trifluoromethyl)imidazo[1,2-b]pyridazin-6-yl)azetidin-3-yl)-2-hydroxyacetamide] | – | – | – |
| < 300 | ≤ 50 | < 100 | < 100 | FC(F)(F)c1cnc2c(NCc3nc4cc(Cl)c(Cl)cc4[nH]3)cc(N3CCNCC3)nn12 [Example 57, N-((5,6-dichloro-1H-benzo[d]imidazol-2-yl)methyl)-6-(piperazin-1-yl)-3-(trifluoromethyl)imidazo[1,2-b]pyridazin-8-amine] | – | – | – |
| 300 to 3000 | 50 to 500 | < 100 | – | FC(F)(F)c1cnc2c(NCc3cc4ncccc4[nH]3)cc(N3CCOCC3)nn12 [Example 87, N-((1H-pyrrolo[3,2-b]pyridin-2-yl)methyl)-6-morpholino-3-(trifluoromethyl)imidazo[1,2-b]pyridazin-8-amine] | < 100 | – | – |
| < 300 | ≤ 50 | 100 to 500 | 100 to 500 | N#CC1(O)CCN(c2cc(NCc3nc4cc(Cl)c(Cl)cc4[nH]3)c3ncc(C(F)(F)F)n3n2)C1 (centres unmarked) [Example 61, 1-(8-(((5,6-dichloro-1H-benzo[d]imidazol-2-yl)methyl)amino)-3-(trifluoromethyl)imidazo[1,2-b]pyridazin-6-yl)-3-hydroxypyrrolidine-3-carbonitrile] | – | – | – |
| 300 to 3000 | ≤ 50 | < 100 | < 100 | N#CC1CCN(c2cc(NCc3nc4ccc(F)c(F)c4[nH]3)c3ncc(C(F)(F)F)n3n2)CC1 [Example 56, 1-(8-(((6,7-difluoro-1H-benzo[d]imidazol-2-yl)methyl)amino)-3-(trifluoromethyl)imidazo[1,2-b]pyridazin-6-yl)piperidine-4-carbonitrile] | – | – | – |
| 300 to 3000 | 50 to 500 | > 500 | > 500 | FC(F)(F)c1cnc2c(NCc3nc4cc(Cl)c(Cl)cc4s3)cc(N3CCOCC3)nn12 [Example 93, N-((5,6-dichlorobenzo[d]thiazol-2-yl)methyl)-6-morpholino-3-(trifluoromethyl)imidazo[1,2-b]pyridazin-8-amine] | – | – | – |
| < 300 | ≤ 50 | < 100 | < 100 | N[C@H]1CCN(c2cc(NCc3nc4ccc(F)c(F)c4[nH]3)c3ncc(C(F)(F)F)n3n2)C1 [Example 38] | – | – | – |
| 300 to 3000 | 50 to 500 | 100 to 500 | < 100 | CCc1cnc2c(NCc3nc4ccc(F)c(F)c4[nH]3)cc(N3CCOCC3)nn12 [Example 5, N-((6,7-difluoro-1H-benzo[d]imidazol-2-yl)methyl)-3-ethyl-6-morpholinoimidazo[1,2-b]pyridazin-8-amine] | – | – | – |
| < 300 | ≤ 50 | 100 to 500 | < 100 | FC(F)(F)c1cnc2c(NCc3nc4cc(Cl)c(Cl)cc4[nH]3)cc(N3CC4(CNC4)C3)nn12 [Example 45, N-((5,6-dichloro-1H-benzo[d]imidazol-2-yl)methyl)-6-(2,6-diazaspiro[3.3]heptan-2-yl)-3-(trifluoromethyl)imidazo[1,2-b]pyridazin-8-amine] | – | – | – |
| < 300 | ≤ 50 | < 100 | < 100 | NC1CN(c2cc(NCc3nc4cc(Cl)c(Cl)cc4[nH]3)c3ncc(C(F)(F)F)n3n2)C1 [Example 36] | – | – | – |
| < 300 | ≤ 50 | < 100 | – | O=C(CO)C1CCN(c2cc(NCc3nc4cc(Cl)c(Cl)cc4[nH]3)c3ncc(C(F)(F)F)n3n2)CC1 [Example 114, 1-(1-(8-(((5,6-dichloro-1H-benzo[d]imidazol-2-yl)methyl)amino)-3-(trifluoromethyl)imidazo[1,2-b]pyridazin-6-yl)piperidin-4-yl)-2-hydroxyethan-1-one] | < 100 | – | – |
| 300 to 3000 | > 500 | < 100 | < 100 | FC(F)(F)c1cnc2c(NCc3cc4ccccn4n3)cc(N3CCOCC3)nn12 [Example 86, 6-morpholino-N-(pyrazolo[1,5-a]pyridin-2-ylmethyl)-3-(trifluoromethyl)imidazo [1,2-b]pyridazin-8-amine] | – | – | – |
| 300 to 3000 | ≤ 50 | 100 to 500 | < 100 | Fc1ccc2nc(CNc3cc(N4CCC4)nn4c(C(F)(F)F)cnc34)[nH]c2c1F [Example 15] | – | – | – |

| Structure (SMILES) | IC50 [1, 5] [nM] | IC50 [2] [nM] | IC50 [3, 6] [nM] | IC50 [4, 7] [nM] | IC50 [4] [nM] | IC50 [3] [nM] | IC50 [1] [nM] |
| --- | --- | --- | --- | --- | --- | --- | --- |
| Fc1ccc2nc(CNc3cc(N4CC5CCC4CO5)nn4c(C(F)(F)F)cnc34)[nH]c2c1F (centres unmarked) [Example 12] | < 300 | ≤ 50 | – | < 100 | – | < 100 | – |
| Fc1ccc2nc(CNc3cc(N4CCOCC4)nn4c(I)cnc34)[nH]c2c1F [Example 26, N-((6,7-difluoro-1H-benzo[d]imidazol-2-yl)methyl)-3-iodo-6-morpholinoimidazo[1.2-b]pyridazin-8-amine] | – | > 500 | – | – | > 500 | > 500 | > 3000 |
| NC(=O)N1CCN(c2cc(NCc3nc4cc(Cl)c(Cl)cc4[nH]3)c3ncc(C(F)(F)F)n3n2)CC1 [Example 66, 4-(8-(((5,6-dichloro-1H-benzo[d]imidazol-2-yl)methyl)amino)-3-(trifluoromethyl)imidazo[1,2-b]pyridazin-6-yl)piperazine-1-carboxamide] | < 300 | 50 to 500 | < 100 | – | < 100 | – | – |
| NC(=O)N1CCN(c2cc(NCc3nc4ccc(F)c(F)c4[nH]3)c3ncc(C(F)(F)F)n3n2)CC1 [Example 92, 4-(8-(((6,7-difluoro-1H-benzo[d]imidazol-2-yl)methyl)amino)-3-(trifluoromethyl)imidazo[1,2-b]pyridazin-6-yl)piperazine-1-carboxamide] | 300 to 3000 | 50 to 500 | < 100 | – | < 100 | – | – |
| FC(F)(F)c1cnc2c(NCc3nc4cc(Cl)c(Cl)cc4[nH]3)cc(N3CC4CC(C3)N4)nn12 [Example 97, 6-(3,6-diazabicyclo[3.1.1]heptan-3-yl)-N-((5,6-dichloro-1H-benzo[d]imidazol-2-yl)methyl)-3-(trifluoromethyl)imidazo[1,2-b]pyridazin-8-amine] | < 300 | ≤ 50 | < 100 | < 100 | – | – | – |

— EP4813991A1 (iLeadBMS Co., Ltd., priority 2023, dated 2025)
